Test results reported in patent US20260109674A1, “ALLOSTERIC MODULATION OF MUSCARINIC ACETYLCHOLINE RECEPTOR EFFICACY” (The University of Toledo, priority 2022, published 2026).
Where two headings read alike, the source gives them in different places.

Experiments:
[1] = target: T1, M1 muscarinic receptors expressed in CHO cells (Homo sapiens, UniProt P11229); assay: [3H]-arachidonic acid release screen with and without ACh and modulator; format: cell-based; conditions: 10 μM modulator
T1 construct: expressed in transfected cells; host or cells: CHO (CHO-hM1, stably transfected)
T1 sequence (P11229 1-460): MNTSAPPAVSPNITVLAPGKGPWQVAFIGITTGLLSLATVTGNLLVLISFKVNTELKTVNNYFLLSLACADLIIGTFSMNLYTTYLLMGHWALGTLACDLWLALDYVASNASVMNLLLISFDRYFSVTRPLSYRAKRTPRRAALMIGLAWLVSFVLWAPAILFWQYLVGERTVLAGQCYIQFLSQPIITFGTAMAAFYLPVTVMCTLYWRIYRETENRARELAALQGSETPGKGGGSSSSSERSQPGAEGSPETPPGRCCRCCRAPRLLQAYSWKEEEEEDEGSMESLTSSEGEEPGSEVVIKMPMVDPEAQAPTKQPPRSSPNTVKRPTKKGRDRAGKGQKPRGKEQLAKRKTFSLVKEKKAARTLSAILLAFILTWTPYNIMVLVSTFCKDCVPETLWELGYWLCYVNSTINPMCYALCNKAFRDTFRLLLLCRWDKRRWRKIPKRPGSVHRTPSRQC
Experimental: CHO cells expressing human M1 muscarinic receptors were cultured at 37° C. in a 5% CO2 atmosphere in F12 medium supplemented with 5% fetal bovine serum, 100 units/mL penicillin, and 100 μg/mL streptomycin.
Measurement of [^3H]AA release was performed. Stably transfected CHO-hM1 or CHO-hM3 cells were seeded on 24-well plates (Greiner Bio-One GmbH, Frickenhausen, Germany) at a density of 5.0×10^4 cells/well in 0.5 ml of F-12 medium. Cells were incubated until they attached (approximately 3 h), followed by the addition of [^3H]AA to a final concentration of 0.05 μCi of [^3H]AA per well. The cells were then grown for 16 to 20 h before the assay was performed. [^3H]AA release was measured in Eagle's basal medium with 20 mM HEPES and 2 mg/ml fatty acid-free bovine serum albumin (EM-BSA). Cells were rinsed twice with EM-BSA, followed by the addition of EM-BSA media containing experimental agents and incubated for 1 h at 37° C. The assay was terminated by aspiration of the media, and the amount of [^3H]AA released was determined by liquid scintillation counting (Beckman-Coulter LS6500).
For some assays, pretreatment with phenoxybenzamine (POB) was employed, as indicated, to reduce the number of available receptors per cell. Stock POB was made up at 10 mM in ethanol and stored at −20° C. Each well was pretreated with 0.5 ml of the appropriate concentration in PBS with 1 mM CaCl2 and 1 mM MgCl2 (PBS++) for 30 min at 37° C., followed by 5 washes with PBS++. After pretreatment, the normal protocol was followed as above.
Tabulated [^3H]AA release data are represented as a fraction of maximal release in the presence of 100 μM ACh or as the fraction of release elicited by the appropriate concentration of ACh alone, as indicated dose-response curves were normalized to the maximal response of ACh without allosteric ligand. Some response curves were analyzed using the empirical four-parameter equation: […]
Disintegration per minute (DPM) values for a single compound were obtained in triplicate, and each compound was evaluated on three separate 24-well plates. The mean values for each condition from each of the three 24-well plates were used for the statistical analysis. The baseline mean was subtracted from each value, then normalized to the mean response produced by 100 μM ACh (set at 1.0). Statistical analyses were completed on the normalized values via one-way repeated measures ANOVA with Tukey's post hoc test. Statistically significant differences are noted as follows: *, p<0.05; **, p<0.01; ***, p<0.001.

[2] = test system: wild-type zebrafish larvae; assay: Maximum tolerated concentration (MTC) determination in zebrafish larvae; format: in vivo, Danio rerio
Experimental: Determination of maximum tolerated concentration was completed by placing 5 days post fertilization (dpf) wild-type zebrafish larvae in a 24 well plate at 6 fish per well, and one compound concentration per well. […] Death was determined by the absence of heartbeat. Additional endpoints were used to assess toxicity at non-lethal concentrations such as startle capacity (poke stimulus), abnormalities in swimming behavior (loss of dorsoventral balance), and gross morphological deformities (bent body). […] The MTC determination was used to select three doses of each compound (low, medium, high dose) to be used in behavioral assays.

[3] = test system: wild-type zebrafish larvae; assay: General locomotor assay in zebrafish larvae (locomotor activity, repetitive behaviors); format: in vivo, Danio rerio; conditions: for response vs control in vivo at 10 µM: Danio rerio, Table 5, 10 μM concentration, N = 12
Experimental: Five days post fertilization (dpf) zebrafish larvae were exposed to a range of nonlethal concentrations of the compounds in a 24-well plate with appropriate controls. The movement of each larval zebrafish was monitored with the Noldus behavior recording system (Noldus Information Technology, Leesburg VA) and quantified using EthoVision® XT 15 software (Noldus Information Technology, Leesburg VA). The plate was immediately placed in the incubator for a 30-minute exposure period. After 30 minutes, the plate was transferred to the Noldus system and swimming behavior was recorded in 100% light for 30 minutes to measure spontaneous swimming behavior. The light was switched off for 10 minutes (dark period) and then switched on for 10 minutes (light period), which was then repeated for two additional cycles. In total, the larvae were exposed to three cycles of alternating 10-minute dark and light periods (100% darkness-to-100% light). […]
All data for exposure and the behavioral end points were analyzed by one-way ANOVA (factor: drug conc) followed by a Dunnett's multiple comparisons test for post hoc significance between drug concentration and control group. Statistically significant differences are noted as follows: *, p<0.05; **, p<0.01; ***, p<0.001.

[4] = after 24-hour exposure, Table 3
[5] = read-out: Variance of Turn Angle
[6] = after 24-hour exposure in separate experiments, Table 5

Row | Compound | Ratio of response of ACh with modulator to response of ACh alone, 0.1 μM ACh ([1]; Table 1) | Ratio of response of ACh with modulator to response of ACh alone, 100 μM ACh ([1]; Table 1) | Stimulation of [3H]AA release, No ACh (fraction of stimulation above the control) ([1]; Table 1) | Maximum Tolerated Concentration [2, 4] | Ratio of response of ACh with modulator to response of ACh alone, 0.1 μM ACh ([1]; Table 4, N = 4-5) | Ratio of response of ACh with modulator to response of ACh alone, 100 μM ACh ([1]; Table 4, N = 4-5) | Stimulation of [3H]AA release, No ACh (fraction of stimulation above the control) ([1]; Table 4, N = 4-5) | response vs control in vivo at 10 µM ([3]; read-out: Angular Velocity) | response vs control in vivo at 10 µM ([3]; read-out: Total Distance Moved) | response vs control in vivo at 10 µM [3, 5] | Maximum Tolerated Concentration [2, 6] | Effect on locomotor activity, angular velocity and turn angle (in words) ([3]; spontaneous swimming period)
1 | COc1cc(CN2C(=O)C(=O)c3ccccc32)cc(OC)c1OC [Compound 8k, 1-(3,4,5-trimethoxybenzyl)indoline-2,3-dione] | 1.37 ± 0.08 | 0.83 ± 0.01 | 0.03 ± 0.00 | 30 µM |  |  |  |  |  |  |  | 
2 | O=C1C(=O)N(Cc2ccc(O)cc2)c2ccccc21 [Compound 10, 1-(4-hydroxybenzyl)indoline-2,3-dione] | 1.60 ± 0.10 | 0.92 ± 0.06 | 0.01 ± 0.01 | 10 µM |  |  |  |  |  |  |  | 
3 | CCCCc1oc2ccc(NS(C)(=O)=O)cc2c1C(=O)c1ccc(OCCCN(CCCC)CCCC)cc1 [Dronedarone, reference compound] | 0.25 ± 0.05 | 0.75 ± 0.07 | 0.08 ± 0.01 | 10 µM |  |  |  |  |  |  |  | 
4 | COc1c(I)cc(CN2C(=O)C(=O)c3cc(OC(F)(F)F)ccc32)cc1I [GK-1-44] |  |  |  |  | 2.47 ± 0.22 | 1.67 ± 0.11 | 0.37 ± 0.04 | 114 ± 19.2% | 78.5 ± 11.1% | 105 ± 10.6% | 10 µM | 
5 | COc1c(Br)cc(CN2C(=O)C(=O)c3cc(OC(F)(F)F)ccc32)cc1Br [GK-1-48] |  |  |  |  | 3.04 ± 0.47 | 1.66 ± 0.07 | 0.15 ± 0.01 | 134 ± 16.5% | 80.1 ± 11.7% | 109 ± 11.9% | 3 µM | significant increase in angular velocity
6 | COc1c(Br)cc(Cn2cc(C(=O)O)c(=O)c3ccccc32)cc1Br [GK-1-50] |  |  |  |  | 2.77 ± 0.49 | 1.11 ± 0.12 | 0.47 ± 0.10 | 124 ± 21.8% | 87.9 ± 10.7% | 107 ± 11.2% | 10 µM | 
